Experimental data: publication PMC9368981, “The γ-Core Motif Peptides of AMPs from Grasses Display Inhibitory Activity against Human and Plant Pathogens” (International Journal of Molecular Sciences, 2022)
Where a SMILES comes first, the peptide text is derived from it.

Legend:
F. culmorum VKM F-2303 = test: Growth inhibition of F. culmorum in microtiter plates; format: cell-based, Fusarium culmorum; settings: 300 µM peptide; spores in half-strength potato dextrose broth, 38 h, absorbance 595 nm; vs control without peptide; triplicate, mean
Method: (§1) The antimicrobial activity of synthetic peptides was tested against a panel of human and plant pathogens. Among them were the yeasts Candida albicans VKM Y-2994 and Cryptococcus neoformans VKM Y-2755, the plant pathogenic bacteria Clavibacter michiganensis subsp. michiganensis VKM Ac-1403, Pseudomonas savastanoi pv. savastanoi VKM B-1546 and Pectobacterium carotovorum subsp. carotovorum VKM B-1247, and four Fusarium species (F. oxysporum VKM F-137, F. culmorum VKM F-2303, F. solani VKM F-142 and F. verticillioides VKM F-670), which cause diseases in plants and humans. The antimicrobial activity was first measured at the peptide concentration of 300 µM (Figure 3).
(§2) The antimicrobial activity of synthetic peptides was tested against the yeasts Candida albicans VKM Y-2994 and Cryptococcus neoformans VKM Y-2755, the bacteria Pseudomonas savastanoi pv. savastanoi VKM B-1546, Pectobacterium carotovorum subsp. carotovorum VKM B-1247 and Clavibacter michiganensis subsp. michiganensis VKM Ac-1403, and four Fusarium species: F. culmorum VKM F-2303, F. oxysporum VKM F-137, F. solani VKM F-142 and F. verticillioides VKM F-670. All cultures were obtained from the All-Russian Collection of Microorganisms (VKM). […] The antimicrobial activity of the peptides was measured in immunoassay microtiter plates according to the protocol of Broekaert et al.. […]

F. oxysporum VKM F-137 = test: Growth inhibition of F. oxysporum in microtiter plates; format: cell-based, Fusarium oxysporum; settings: 300 µM peptide; spores in half-strength potato dextrose broth, 38 h, absorbance 595 nm; vs control without peptide; triplicate, mean
Method: as §1, §2

F. solani VKM F-142 = test: Growth inhibition of F. solani in microtiter plates; format: cell-based, Fusarium solani; settings: 300 µM peptide; spores in half-strength potato dextrose broth, 38 h, absorbance 595 nm; vs control without peptide; triplicate, mean
Method: as §1, §2

[1] = tested on: F. verticillioides VKM F-670; format: cell-based, Fusarium verticillioides
Method: as §1
(§3) The antimicrobial activity of synthetic peptides was tested against the yeasts Candida albicans VKM Y-2994 and Cryptococcus neoformans VKM Y-2755, the bacteria Pseudomonas savastanoi pv. savastanoi VKM B-1546, Pectobacterium carotovorum subsp. carotovorum VKM B-1247 and Clavibacter michiganensis subsp. michiganensis VKM Ac-1403, and four Fusarium species: F. culmorum VKM F-2303, F. oxysporum VKM F-137, F. solani VKM F-142 and F. verticillioides VKM F-670. All cultures were obtained from the All-Russian Collection of Microorganisms (VKM). The details of the production and storage of cultures of microorganisms used in this study are described at the VKM Home page. Antimicrobial assays were accomplished according to the procedure described earlier. In short, yeasts were grown on the YPD-P medium and the bacteria P. carotovorum and Cl. michiganensis were cultured on a modified YPD-P medium. The Fusarium fungi were grown on potato dextrose agar at 25 °C for 7–8 days, and spores were washed off from the surface of the mycelia with sterile, distilled water. The antimicrobial activity of the peptides was measured in immunoassay microtiter plates according to the protocol of Broekaert et al.. With yeasts and bacteria, each well contained 10 µL of the tested peptide solution (final concentrations of 10–300 µM) in water, 80 µL of the medium and 10 µL of the microbial suspension. The plates were incubated at 30 °C for 24 h, and the absorbance of the suspension was measured on an Efos 9305 spectrophotometer (Sapphire, Moscow, Russia) at 594 nm. For Fusarium species, the wells of a microtiter plate were filled with 90 µL of the fungal spore suspension in half-strength potato dextrose broth at a concentration of 2000–3000 spores in 100 µL and 10 µL of aqueous solutions of peptides at final concentrations of 10–300 µM. After 38 h of incubation, the absorbance was recorded at 595 nm on a FilterMax F5 Multi-Mode Microplate Reader (Molecular Devices, San Jose, CA, USA). Antimicrobial activity is expressed in IC50 values, which show the concentration necessary for 50% inhibition of the pathogen growth; this was determined from a graph showing the activity dependence on peptide concentration.
(§4) For each pathogen, experiments on the peptide antimicrobial activity evaluation were carried out in triplicate per treatment. Mean values, standard deviations (SD), and the significance of differences (p ≤ 0.05) of the means between treatments and controls (t-test for independent variables) were determined using STATISTICA v. 6.1 software (StatSoft Inc., Tulsa, OK, USA).

[2] = tested on: Pectobacterium carotovorum subsp. carotovorum VKM B-1247; settings: 300 µM peptide; modified YPD-P medium, 30 °C, 24 h, absorbance 594 nm; vs control without peptide; triplicate, mean
Method: All cultures were obtained from the All-Russian Collection of Microorganisms (VKM).
Mean values, standard deviations (SD), and the significance of differences (p ≤ 0.05) of the means between treatments and controls (t-test for independent variables) were determined using […] v. 6.1 software (StatSoft Inc., Tulsa, OK, USA).

Cr. neoformans cells [3] = test: Propidium iodide penetration, flow cytometry; format: cell-based, Cryptococcus neoformans; settings: 28 °C, 2 h
Method: (§5) Their ability to disturb the integrity of pathogen membranes was assayed by staining with propidium iodide of C. albicans and Cr. neoformans cells preliminarily incubated with the peptides. The results were visualized by fluorescent microscopy and quantified by flow cytometry (Figure 5, Figure 6 and Figure 7).
For flow cytometry experiments with Cr. neoformans, the yeasts were grown on the YPD medium at 28 °C for 48 h. After that, the cells were centrifuged at 12,000× g for 3 min, washed with MiliQ water and incubated with the peptides dissolved in water at a concentration of 300 µM at 28 °C for 2 h. The cells were stained with propidium iodide by direct addition of the dye to the incubation medium (final concentration of 2 µg/mL) and measured on a NovoCyte Flow cytometer (Agilent, Santa Clara, CA, USA) using the channel FL2 (488 nm excitation and 585 nm emission). The sample without peptides was used as a control.

Cr. neoformans cells [4] = test: Propidium iodide staining, fluorescence microscopy; format: cell-based, Cryptococcus neoformans; settings: peptide 300 µM, 30 °C, 1 h, 0.03 mM PI 15 min
Method: as §5
(§6) Staining of yeast cells with propidium iodide in the presence of the γ-core peptides was carried out according to the protocol described earlier. C. albicans or Cr. neoformans cells (24 h culture in YPD-P at a cell concentration of 2 × 10^8/mL) were incubated with the peptide at a concentration of 300 µM at 30 °C for 1 h. After incubation, 1 mL of the cells was stained with 0.03 mM propidium iodide (Sigma, St. Louis, MO, USA). The staining proceeded for 15 min at 30 °C. The fluorescence was recorded on an AXIO Imager A1 fluorescence microscope (ZEISS, Göttingen, Germany) using a Zeiss filter set 56 HE.

[5] = tested on: Pseudomonas savastanoi pv. savastanoi VKM B-1546; format: cell-based; settings: peptide 10–300 µM, 30 °C, 24 h, absorbance 594 nm; from activity vs concentration graph; mean ± SD; read-out: IC50, μM Ps. savastanoi
Method: as §1, §3, §4

[6] = tested on: Candida albicans VKM Y-2994; format: cell-based
Method: as §1, §3, §4

[7] = tested on: Cryptococcus neoformans VKM Y-2755; format: cell-based
Method: as §1, §3, §4

C. albicans cells = test: Propidium iodide staining, fluorescence microscopy; format: cell-based, Candida albicans; settings: peptide 300 µM, 30 °C, 1 h, 0.03 mM PI 15 min
Method: as §5, §6

[8] = inhibition curves (Figure 4), highest tested concentration (300 µM)

In the case of `CC[C@H](C)[C@H](NC(=O)[C@@H](NC(=O)[C@H](Cc1c[nH]cn1)NC(=O)[C@@H](NC(=O)[C@H](C)NC(=O)[C@@H](NC(=O)[C@H](CS)NC(=O)[C@H](CS)NC(=O)CNC(=O)[C@@H](N)CO)[C@@H](C)O)C(C)C)[C@@H](C)O)C(=O)NCC(=O)N[C@@H](CCCCN)C(=O)N[C@@H](CCC(N)=O)C(=O)N[C@@H](CO)C(=O)N1CCC[C@H]1C(=O)N[C@@H](CCCCN)C(=O)N[C@@H](CS)C(=O)O` [TkLTPd5.6_59-75] (H-SGCCTAVHTIGKQSPKC-OH; N-terminus and C-terminus assumed), the “Pathogen inhibition, % (F. culmorum)” value (F. culmorum VKM F-2303) is reported as “inactive”, the “Pathogen inhibition, % (F. oxysporum)” value (F. oxysporum VKM F-137) is reported as “inactive” and the “Pathogen inhibition, % (F. solani)” value (F. solani VKM F-142) is reported as “inactive”. The “Pathogen inhibition, % (F. verticillioides)” value ([1]; 300 µM peptide, spores in half-strength potato dextrose broth, 38 h, absorbance 595 nm, vs control without peptide, triplicate, mean) was “inactive”.

In the case of `C[C@H](NC(=O)[C@H](CCCNC(=N)N)NC(=O)CNC(=O)[C@@H](NC(=O)[C@H](Cc1ccc(O)cc1)NC(=O)[C@@H]1CCCN1C(=O)[C@H](CCCNC(=N)N)NC(=O)CNC(=O)[C@H](CCCNC(=N)N)NC(=O)[C@H](C)NC(=O)[C@@H]1CCCN1C(=O)[C@@H](N)CS)[C@@H](C)O)C(=O)N[C@@H](CS)C(=O)O` [DEFL4-37_90-102] (H-CPARGRPYTGRAC-OH; N-terminus and C-terminus assumed), the “Pathogen inhibition, % (P. carotovorum)” value [2] is reported as 36%, the “Maximum inhibition of F. verticillioides at 150 µM” value ([1]; inhibition curves (Figure 4), peptide 150 µM) is reported as “about 35%” and the IC50 ([1]; peptide 10–300 µM, 38 h, absorbance 595 nm, from activity vs concentration graph, mean ± SD) is reported as > 100 µM. The “Penetration of propidium iodide (PI) into Cr. neoformans cells” value (Cr. neoformans cells [3]; peptide 300 µM in water, PI 2 µg/mL, FL2 (488/585 nm)) was 68.48%, the “Number of Cr. neoformans cells in flow cytometry” value (Cr. neoformans cells [3]; peptide 300 µM) was “reduction in the number of Cr. neoformans cells” and the “Membrane permeabilization of Cr. neoformans cells (PI staining)” value (Cr. neoformans cells [4]) was “induced membrane permeabilization”. For the same compound, the IC50 [5] was > 100 µM, the “Inhibition of C. albicans at the highest tested concentration” value [6, 8] was “about 35%” and the IC50 ([6]; peptide 10–300 µM, 30 °C, 24 h, absorbance 594 nm, from activity vs concentration graph, mean ± SD) was > 100 µM. The “Inhibition of Cr. neoformans at the highest tested concentration” value [7, 8] was 100%, the IC50 ([7]; peptide 10–300 µM, 30 °C, 24 h, absorbance 594 nm, from activity vs concentration graph, mean ± SD, read-out: IC50, μM Cr. neoformans) was > 100 µM and the “Membrane permeabilization of C. albicans cells (PI staining)” value (C. albicans cells) was “induced membrane permeabilization”.
